Reference: ChEMBL document CHEMBL3507680, “University of Dundee, Gates Library screen for HepG2 cell viability”

Assay: Human HepG2 cell viability assay in 384 well format
Assay type: toxicity, cell-based
Design: dose 125 nL, time 70.5 hour; concentration not given beside the values
Details: HepG2 cells, read-out: Inhibition

Row | SMILES | cytotoxicity at 70.5 h [%]
1 | CC1CN(CC(=O)Nc2nncs2)CCN1Cc1nccn1C (centres undefined) | -4.59
2 | O=C(NC1CC1)C1CNCCN1C(=O)COc1ccc2c(c1)OCO2 (centres undefined) | -5.08
3 | CSCC(=O)N1CCCN(c2ccncc2C)CC1 | -8.19
4 | O=C(CC1CCCO1)N1CCCN(c2cccnn2)CC1 (centres undefined) | -3.32
5 | Cc1nc2ccccn2c1CC(=O)N[C@@H]1CC[C@@H](N2CCOCC2)[C@@H]1O | -1.29
6 | CC(C)n1ccnc1CN1CCCC1c1cccc(-n2ccnc2)n1 (centres undefined) | -2.76
7 | CCN(C)S(=O)(=O)NCC1CCCN(Cc2ccccc2F)C1 (centres undefined) | -4.79
8 | Cc1ccc(C(=O)N2CC3(CCNCC3)c3cc(Cl)ccc32)cn1 | -7.61
9 | O=C1NCC2(CCCN(C(=O)Cn3nc4ccccc4n3)CC2)O1 (centres undefined) | 29.9
10 | CC(C)(C)c1noc(CN2CCN(C(=O)c3ccco3)CC2)n1 | 14.9
11 | O=C([C@@H]1COC[C@H]2CN(C3CCCC3)C[C@H]21)N1CCCCO1 | 11.7
12 | Cc1cc(CCCC(=O)NC2CCN(C)C2=O)c(C)s1 (centres undefined) | -9.64
13 | Cc1nn(C)c(C)c1NC(=O)CCn1ncc2ccc(Cl)cc21 | -11.9
14 | Cc1ccnn1CCC(=O)N1C[C@H]2CC[C@@H]1CN(CC(=O)N(C)C)C2 | -0.432
15 | COc1ccc(OC)c(-n2cnnc2C)c1 | -3.42
16 | Cn1ccc(C(=O)N2CCC3(CC2)CC(Nc2cnccn2)CO3)n1 (centres undefined) | -7
17 | O=C(NC1CC1)c1cn(C2CCN(c3cc(C4CC4)ncn3)CC2)nn1 | 30
18 | CS(=O)(=O)NC1CCCN(C(=O)c2cccnc2)C1 (centres undefined) | -8.57
19 | Cn1cccc1C(=O)N1CCCC2(CCCN2Cc2cccnc2)C1 (centres undefined) | -5.57
20 | Cc1cc(CN(C)CC2(O)CCCN(CCC3CCCCC3)C2=O)no1 (centres undefined) | 48.7
21 | CCC(NC(=O)C1CC1)c1ccccc1OCC(=O)N1CCCC1 (centres undefined) | -6.4
22 | COC(=O)c1ccc(NC(C)c2ccc3c(c2)CC(=O)N3)nn1 (centres undefined) | -10.3
23 | Cc1ccc(NC2CCN(C(=O)COCC(F)(F)F)CC2)nn1 | 10.1

Row | SMILES | cytotoxicity at 70.5 h [%]
24 | COc1ccccc1N1CCC(N2CCOC(C(F)(F)F)C2)CC1 (centres undefined) | -3.26
25 | COC1CCN(S(=O)(=O)N2CCC3(CCCNC3=O)C2)CC1 (centres undefined) | -0.998
26 | Cc1cc(CC(C)NC(=O)Cc2cc(F)ccc2C)[nH]n1 (centres undefined) | 3.68
27 | CN1CCC(C(=O)NCCC2CN(c3cnn(C)c(=O)c3)CCO2)CC1 (centres undefined) | -7.81
28 | COC(=O)CN(Cc1ccccc1C)C(=O)COCC1CC1 | -2.06
29 | CC(C)(C)c1ccc(OCC(=O)O)c(CN2C[C@H]3C[C@H](O)C[C@H]3C2)c1 | 2.38
30 | CC(=O)OC1CN(c2nc3c(C(F)(F)F)cccc3s2)C1 | -11.8
31 | COCCN1C[C@@H]2[C@@H](OC)CCN(C(=O)Cc3ccsc3)[C@@H]2C1 | -8.01
32 | c1cc(CN2CCc3ncc(CN4CCOCC4)n3CC2)cs1 | 16.8
33 | c1cc(NCc2cscn2)cc(OCCN2CCCCC2)c1 | -2.11
34 | CN(C)S(=O)(=O)N1C[C@H]2CCC[C@@]2(COCC2CCOCC2)C1 | 9.65
35 | CSCCC1c2nc[nH]c2CCN1Cc1ccccc1C#N (centres undefined) | -6.75
36 | CCc1cc(C(=O)NCC2CCN(Cc3ccncc3)CC2)on1 | -9.67
37 | Cn1ccnc1C(=O)N[C@@H]1CN(Cc2ccc(F)cc2)[C@@H]2CCCO[C@@H]21 | -3.63
38 | OC1(CN2CCCC2)CCCN(Cc2c[nH]c(CC3CCCC3)n2)C1 (centres undefined) | -4.13
39 | O=C(c1coc(COc2ccccc2F)n1)N1CCCO1 | -6.81
40 | COc1cccc(CC(=O)N2CC[C@@H]3[C@H](CC2)N(C)CCS3(=O)=O)c1 | -2.21
41 | CCC(C)Oc1ccc(CNCCc2c[nH]cn2)cc1Cl (centres undefined) | 24.1
42 | COc1ccc2c(C)c(C(=O)NC3CCN(S(C)(=O)=O)CC3)oc2c1 | -2.46
43 | Cc1cc(C)n(CCCNC(=O)NCc2c(C)cc(C)[nH]c2=O)n1 | 2.42
44 | Cc1noc(C)c1CN1CCC2(CC1)CC(Oc1cccnc1)C2 | -9.29
45 | CN1CCCC1CNC(=O)c1nnn(-c2ccc(F)cc2)c1C1CC1 (centres undefined) | 22.3
46 | O=C(CC1CCCO1)NCCc1ccc(Br)cc1F (centres undefined) | -5.5

Row | SMILES | cytotoxicity at 70.5 h [%]
47 | Cc1ncsc1CCC(=O)NC1CCN(c2ncccc2C#N)CC1 | -13.1
48 | CC(C1CCN(Cc2c(Cl)cncc2Cl)CC1)N1CCOCC1 (centres undefined) | -5.73
49 | c1ccc(CCCN2CC[C@H](c3nnc(-c4cccnc4)o3)C2)cc1 | -10.6
50 | Cc1noc(CCCC(=O)NC(C)c2cccnc2)n1 (centres undefined) | 0.606
51 | CCc1nnsc1C(=O)N1CCCC(n2nc(C)nc2C)C1 (centres undefined) | -3.17
52 | Cc1cccc(-c2noc(C)c2C(=O)NC2CCCOC2)c1 (centres undefined) | -10.9
53 | CCCN1CCN(C(=O)Cc2nc(-c3ccco3)oc2C)CC1 | -7.9
54 | Cc1ccccc1C(=O)N1C[C@@H]2COC[C@]2(COCc2cccnc2)C1 | 2.96
55 | CN(Cc1cccnc1)C[C@H]1CC[C@@H](Cc2ccc3c(cnn3C)c2)O1 | -10.4
56 | Cn1cnnc1C1CCN(C(=O)CCCOc2ccccc2F)CC1 | -12.8
57 | CC(C)OCCC1CCCCN1S(=O)(=O)c1cnn(C)c1 (centres undefined) | -4.85
58 | CCCN(CCn1c(=O)oc2ccccc21)CC1CC1 | 1.08
59 | Fc1cnc(N2CCn3c(CN4CCCC4)nnc3C2)nc1 | -9.62
60 | CC(C)[C@H](NC(=O)Cn1nc2c(cc1=O)CCCC2)C(=O)O | -4.44
61 | CCCC(=O)N1CCN(c2cc(-n3cnc(C)c3C)nc(C)n2)CC1 | -2.01
62 | COc1ccc(Cl)cc1-n1nc(C2CCCC2)nc1Cn1cnnn1 | 5.4
63 | Oc1cc(CNCCCN2CCCC2)nc2ccc(F)cc12 | 12.5
64 | COc1ccc(CN2CCc3sccc3C2C)cc1CN1CCOCC1 (centres undefined) | -0.0983
65 | Cn1cc(CN2CC3(CCN(C(=O)c4cscn4)C3)C2)cn1 | -7.98
66 | O=c1ccc2c([nH]1)CCC(NS(=O)(=O)C1CC1)C2 (centres undefined) | -4.74
67 | Cc1nnc([C@@H]2CCO[C@@H]3CCN(C(=O)Cc4ccccn4)C[C@@H]32)o1 | -0.42
68 | O=C(c1cccnc1-n1cncn1)N1CCN(CC(F)(F)F)CC1 | -0.957
69 | CC(C)Cc1cc(C(=O)NCC2CCCN(Cc3ccco3)C2)on1 (centres undefined) | -10.7

Row | SMILES | cytotoxicity at 70.5 h [%]
70 | CCC1CN(CCCO)c2ccccc2O1 (centres undefined) | 0.738
71 | CN(c1ncc(S(N)(=O)=O)s1)C1CCc2ccccc2C1 (centres undefined) | -10
72 | CCOC(=O)Cn1cnc2nc3n(c2c1=O)CCC3 | -2.23
73 | CC[C@H](C)[C@H](NC(=O)c1ccc(-n2cnnn2)cc1)C(=O)OC | 10.1
74 | c1cnc(N2Cc3nccn3CC(COc3cccnc3)C2)nc1 (centres undefined) | -8.37
75 | CS(=O)(=O)Nc1ccn(Cc2cccc(F)c2)n1 | -6.83
76 | CCOC(=O)COC1CCN(C(C)=O)CC(=O)N(C)c2ccccc21 (centres undefined) | -3.91
77 | Cc1nn(C)c(N2CCOCC2)c1CNC(C)c1cccs1 (centres undefined) | -1.47
78 | CN(Cc1ccc(Br)c2cccnc12)S(C)(=O)=O | 12.8
79 | CCNC(=O)N1CCCCC1CCNS(C)(=O)=O (centres undefined) | -10.5
80 | Cc1c(C(=O)NCc2ccnc(OCC(F)(F)F)c2)cnn1C | -4.98
81 | Cc1ncsc1CN1CC[C@H](O)[C@@H](n2cnc3c(N)ncnc32)CC1 | 8.32
82 | CNc1nc(C)c(C(=O)N2C[C@@H](C(=O)O)[C@H](C3CC3)C2)s1 | -6.65
83 | COCCO[C@H]1CCN(C(=O)c2ccsc2)[C@H]1Cc1cnn(C)c1 | -11.9
84 | COCCn1ccc2c(C(=O)NC3CN4CCC3CC4)cccc21 (centres undefined) | -20.8
85 | COc1cccc2c(=O)n(C3CCNCC3)cnc12 | -18.3
86 | CCn1cc(NC(=O)NCC(C)O)cn1 (centres undefined) | -1.8
87 | COc1ccc(CNC(=O)N2CCOCC2C2CC2)c(C)c1 (centres undefined) | -6.07
88 | Cc1nc(C)n(CC2CCCCN2CC(=O)Nc2cccnc2)n1 (centres undefined) | -0.493
89 | CCCc1ccc(OCCNCc2ccco2)c(OC)c1 | -1.62
90 | O=C(CO)N1CC2(CCN(c3ccccc3)C2)C1 | -6.59
91 | Cn1cc(Cl)cc1C(=O)N1CCN(Cc2cccs2)CC1 | -12.6
92 | COc1cc2c(cc1C(=O)N1CC(c3ccncc3)C1)CCC2 | -5.23

Row | SMILES | cytotoxicity at 70.5 h [%]
93 | CCC1CN(C(=O)COc2ccc(C)nc2)CCO1 (centres undefined) | 0.326
94 | CC(c1ccc(F)cc1F)N1CCN(CCC(=O)NC(N)=O)CC1 (centres undefined) | -6.26
95 | Cc1[nH]ccc1C(=O)NCc1ncoc1C | -2.23
96 | Cc1cc(C)n(Cc2cccc(C(=O)N3CCOCC3(C)C)c2)n1 | -10
97 | CS(=O)(=O)CCN(CCc1cccc(F)c1)C1CC1 | -0.807
98 | CCN(Cc1ccoc1)C(=O)Nc1ccccc1CN1CCOCC1 | 7.89
99 | CC[C@@H](c1ccccc1)n1c(C2CC2)n[nH]c1=O | -13
100 | Clc1ccccc1OC1CCN(CC2CCOC2)CC1 (centres undefined) | 3.25
101 | CC(=O)NCC1CCN(Cc2nc(C3CC3)no2)CC1 | -6.87
102 | COc1ccc(C2(c3nc(-c4cccnc4)no3)CCOCC2)cc1 | 34.4
103 | NC1(C(=O)NCC2CCCN(Cc3cccc4nonc34)C2)CCC1 (centres undefined) | -3.66
104 | CCN1CCC(CNC(=O)Nc2cc(C)on2)C1 (centres undefined) | -4.44
105 | CCN(CC)C(=O)CSc1nnc(CCNC(=O)OC(C)(C)C)o1 | -11.3
106 | Cc1cccc(S(=O)(=O)N2C[C@H]3C[C@H](C(=O)NCC(C)C)[C@@H](C2)O3)c1 | 25.7
107 | Cc1noc(C)c1CCCNC(=O)Nc1ccc2c(c1)COC2 | 7.04
108 | O=c1[nH]cc(N2CCOCC2)c(=O)[nH]1 | -0.0513
109 | CC(C)(C)CC(=O)N1CCc2sccc2C1 | -7.51
110 | COc1ccc(-c2nc(CNC(C)Cn3cccn3)cs2)cc1 (centres undefined) | -12.5
111 | Clc1ccc(-c2c[nH]c([C@@H]3COCCN3)n2)cc1 | -0.826
112 | Cc1occc(=O)c1OCC(=O)N1CCN(c2cccc(Cl)c2)CC1 | 2.39
113 | O=C(Cc1ccccc1Cl)NCC1CCN(Cc2ccsc2)CC1 | -5.31
114 | c1nc(N2CCOC(Cn3cncn3)C2)c2cc[nH]c2n1 (centres undefined) | -6.11
